Patent publication US10975049B2, “Nicotinyl alcohol ether derivative, preparation method therefor, and pharmaceutical composition and uses thereof” (Institute of Materia Medica, Chinese Academy of Medical …, priority 2016, dated 2021)
Where a name gives a salt, the structure may show the parent alone.

biological target: interaction between PD-1 and PD-L1 (Homo sapiens (Human), UniProt Q9NZQ7); assay: Cisbio PD-1/PD-L1 binding assay kit (HTRF); conditions: molecular level, read-out: IC50 (M), inhibitory activity on the interaction between PD-1 and PD-L1
Text: 1. In vitro activity evaluation: Cisbio PD-1/PD-L1 binding assay kit was applied for the detection method of in vitro enzymology level.
Screening Principles and Methods of PD-1/PD-L1 Small Molecule Inhibitors
1) Principle: PD-1 protein is with HIS tag, and PD-1 ligand PD-L1 is with hFc tag. Eu labeled anti-hFc antibody and XL665 labeled anti-HIS antibody are combined with the above two label proteins respectively. After laser excitation, energy can be transferred from donor Eu to receptor XL665, allowing XL665 to glow.
2) Experimental method: The specific method can be referred to Cisbio's PD-1/PD-L1 Kit (item 64CUS000C-2). Reagents should be dispensed in the following order. For 384-well white ELISA plate, 2 μl of diluent or target compound diluted with diluent was added to each well, and then 4 μl of PD-1 protein and 4 μl of PD-L1 protein were added per well, incubated for 15 min at room temperature; and 10 μl of a mixture of anti-Tag1-Eu3^+ and anti-Tag2-XL665 was added per well and incubated for 1 h to 4 h at room temperature and the fluorescence signals at 665 nm and 620 nm were measured with an Envison instrument. HTRF rate=(665 nm/620 nm)*10^4. 8-10 concentrations were detected for each compound and IC50 was calculated by Graphpad software.

Chain of interaction between PD-1 and PD-L1 (Q9NZQ7 19-238): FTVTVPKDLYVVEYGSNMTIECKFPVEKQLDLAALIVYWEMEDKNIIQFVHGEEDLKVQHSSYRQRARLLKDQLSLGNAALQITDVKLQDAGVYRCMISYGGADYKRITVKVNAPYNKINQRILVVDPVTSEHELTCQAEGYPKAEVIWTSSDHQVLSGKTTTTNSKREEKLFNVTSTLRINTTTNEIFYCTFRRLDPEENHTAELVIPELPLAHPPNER

SMILES	IC50
CCOC(=O)C(CO)NCc1cc(Cl)c(OCc2cccc(-c3ccccc3)c2Br)cc1OCc1cccnc1 (centres unmarked) [Example 1, Ethyl N-(4-(2-bromo-3-phenylbenzyloxy)-5-chloro-2-(pyridin-3-yl-methyleneoxy)benzyl) serinate dihydrochloride]	1.48e-07 M
CC(C)OC(=O)[C@H](CO)NCc1cc(Cl)c(OCc2cccc(-c3ccccc3)c2Br)cc1OCc1cccnc1 [Example 6, (S)-isopropyl N-(4-(2-bromo-3-phenylbenzyloxy)-5-chloro-2-(pyridin-3-yl-methyleneoxy)benzyl) serinate dihydrochloride]	8.23e-08 M
O=C(O)[C@@H](CO)NCc1cc(Cl)c(OCc2cccc(-c3ccccc3)c2Br)cc1OCc1cccnc1 [Example 8, (R)—N-(4-(2-bromo-3-phenylbenzyloxy)-5-chloro-2-(pyridin-3-yl-methyleneoxy)benzyl) serine]	4.29e-08 M
O=C(O)CNCc1cc(Cl)c(OCc2cccc(-c3ccccc3)c2Br)cc1OCc1cccnc1 [Example 12, N-(4-(2-bromo-3-phenylbenzyloxy)-5-chloro-2-(pyridin-3-yl-methyleneoxy)benzyl) glycine]	4.11e-08 M
CC(C)C(NCc1cc(Cl)c(OCc2cccc(-c3ccccc3)c2Br)cc1OCc1cccnc1)C(=O)O (centres unmarked) [Example 13, N-(4-(2-bromo-3-phenylbenzyloxy)-5-chloro-2-(pyridin-3-yl-methyleneoxy)benzyl) valine]	2e-07 M
C/C(=C\C#N)NCc1cc(Cl)c(OCc2cccc(-c3ccccc3)c2Br)cc1OCc1cccnc1 [Example 14, (E)-3-(4-(2-bromo-3-phenylbenzyloxy)-5-chloro-2-(pyridin-3-yl-methyleneoxy)benzylamino) but-2-enenitrile]	2.69e-05 M
CS(=O)(=O)NCCNCc1cc(Cl)c(OCc2cccc(-c3ccccc3)c2Br)cc1OCc1cccnc1 [Example 16, N-(2-methanesulfonaminoethyl)-4-(2-bromo-3-phenylbenzyloxy)-5-chloro-2-(pyridin-3-yl-methyleneoxy)benzylamine]	1.99e-07 M
CC(=O)NCCNCc1cc(Cl)c(OCc2cccc(-c3ccccc3)c2Br)cc1OCc1cccnc1 [Example 17, N-(2-acetylaminoethyl)-4-(2-bromo-3-phenylbenzyloxy)-5-chloro-2-(pyridin-3-yl-methyleneoxy) benzylamine]	5.51e-07 M
CC(C)C[C@H](NCc1cc(Cl)c(OCc2cccc(-c3ccccc3)c2Br)cc1OCc1cccnc1)C(=O)O [Example 20, N-(4-(2-bromo-3-phenylbenzyloxy)-5-chloro-2-(pyridin-3-yl-methyleneoxy)benzyl) leucine]	6.1e-08 M
O=C(O)[C@H](Cc1ccc(O)cc1)NCc1cc(Cl)c(OCc2cccc(-c3ccccc3)c2Br)cc1OCc1cccnc1 [Example 21, N-(4-(2-bromo-3-phenylbenzyloxy)-5-chloro-2-(pyridin-3-yl-methyleneoxy)benzyl) tyrosine]	4.06e-07 M
CC[C@H](C)[C@H](NCc1cc(Cl)c(OCc2cccc(-c3ccccc3)c2Br)cc1OCc1cccnc1)C(=O)O [Example 22, N-(4-(2-bromo-3-phenylbenzyloxy)-5-chloro-2-(pyridin-3-yl-methyleneoxy)benzyl) isoleucine]	4.99e-06 M
